Data set [1] is described as follows: in vivo. Conditions: mouse.
For data set [2], the system named is CEM cells. The data set is described as follows: Cytotoxicity in uninfected CEM cells (trypan blue staining). The note with it: at concentrations not exceeding 10 mcg/ml. As for the experimental part:
Human T cell-derived, T4 antigen-positive CEM cells (provided by the Institut Pasteur, France) were used as host cells of HIV. Cell culture was carried out in a carbon dioxide-containing atmosphere in an incubator maintained at 37°C according to a conventional method [cf. […] The culture supernatant (5×10⁶ TCID₅₀/ml) obtained by subjecting CEM cells to HIV (LAV 1) infection and stored at -70°C was used as the HIV source.
The cell culture medium (10 ml) placed in a plastic culture flask (25 cm²) was inoculated with CEM cells to a cell density of 2.5×10⁵ cells/ml and incubation was performed for 3 days. Then, the culture was transferred to a 15-ml plastic centrifuge tube and centrifuged at 1,000 revolutions per minute for 5 minutes for medium removal. A fresh portion of the medium was added to the cells, the cell density being adjusted to 5.0×10⁵ cells/ml. The following mixture (1.0 ml) containing the cell suspension prepared in the above manner was incubated in a 24-well plastic culture plate for 4 days:
The cells in each well were then suspended uniformly in the medium by pipetting and a 0.5-ml portion of the suspension was separated.
A fresh 2-ml portion of the test substance-free medium was added to the remaining cell suspension (0.5 ml) and, after a further 3-day incubation, a cell suspension was produced in the same manner and a 0.5-ml portion thereof was removed.
The cell suspensions collected in the above manner were subjected to viable cell count and viable cell percentage determinations by trypan blue staining.

Some results are limits rather than exact numbers.

Among the data in patent publication EP0394553A2, “Use of fluorine containing pyridone carboxylic acid derivatives for preparing a medicament for the treatment of HIV infections” (DAIICHI PHARMACEUTICAL CO., LTD., priority 1989, dated 1990) are LD50 and cytotoxicity values, retold here.

Regarding `CC1COc2c(N3CCN(C)CC3)c(F)cc3c(=O)c(C(=O)O)cn1c23` (racemic) [OFLX, (±)-9-fluoro-3-methyl-10-(4-methyl-1-piperazinyl)-7-oxo-2,3-dihydro-7H-pyrido[1,2,3-de][1,4]benzoxazine-6-carboxylic acid], the LD50 in data set [1] (po) stood at 5450 mg/kg. The cytotoxicity entry in data set [2] is “no cytotoxicity”.

In turn, `C[C@H]1COc2c(N3CCN(C)CC3)c(F)cc3c(=O)c(C(=O)O)cn1c23` [DR-3355, (-)-(S)-9-fluoro-2,3-dihydro-3-methyl-10-(4-methyl-1-piperazinyl)-7-oxo-7H-pyrido[1,2,3-de][1,4]benzoxazine-6-carboxylic acid hemihydrate] returned an LD50 in data set [1] (iv) of no less than 200 mg/kg. The cytotoxicity entry in data set [2] is reported as “no cytotoxicity”.

As for `CCn1cc(C(=O)O)c(=O)c2cc(F)c(N3CCNCC3)cc21` [NFLX, 1-ethyl-6-fluoro-1,4-dihydro-4-oxo-7-(1-piperazinyl)-3-quinolinecarboxylic acid], the LD50 in data set [1] (po) is no less than 4000 mg/kg. The cytotoxicity entry in data set [2] is “no cytotoxicity”.

As usually defined, the LD50 is the dose expected to kill half of the subjects tested. A low value points to a more toxic substance.
